Here are results for 11 compounds from US20250034210A1, “DLL3 TARGETING PEPTIDES AND CONSTRUCTS THEREOF” (MARIANA ONCOLOGY INC., priority 2023, published 2025).

*1 amine or outer side, *2 acyl side, *3 side chain or, on linkers, in order; H or OH if unused. Where a SMILES comes first, the peptide text is derived from it. Bridges are numbered along the chain shown (N, C = ends). [ ]: non-standard residue; d: D form. The star is where a group is joined. DOTA = O=C(O)CN1CCN(CC(=O)O)CCN(CC(=O)*)CCN(CC(=O)O)CC1; Phe(2-CF3) = N[C@@H](Cc1ccccc1C(F)(F)F)C(=O)O; Pro(trans-4-F) = O=C(O)[C@@H]1C[C@@H](F)CN1; d(γGlu) = O=C(O)[C@@H](CCC(=O)[*:2])N[*:1]; Pro(cis-4-F) = O=C(O)[C@@H]1C[C@H](F)CN1; Pro(4S-NH2) = N[C@@H]1CN[C@H](C(=O)O)C1; Pro(4R-NH2) = N[C@H]1CN[C@H](C(=O)O)C1; cisHyp = O=C(O)[C@@H]1C[C@H](O)CN1; Hyp = O=C(O)[C@@H]1C[C@@H](O)CN1; dNle = CCCC[C@@H](N)C(=O)O; Pip = O=C(O)[C@@H]1CCCCN1; Ahx = NCCCCCC(=O)O

This assay concerns the target T1, human DLL3 (Homo sapiens, UniProt Q9NYJ7).
T1 construct: biotin (biotinylated)
T1 sequence (Q9NYJ7 27-618): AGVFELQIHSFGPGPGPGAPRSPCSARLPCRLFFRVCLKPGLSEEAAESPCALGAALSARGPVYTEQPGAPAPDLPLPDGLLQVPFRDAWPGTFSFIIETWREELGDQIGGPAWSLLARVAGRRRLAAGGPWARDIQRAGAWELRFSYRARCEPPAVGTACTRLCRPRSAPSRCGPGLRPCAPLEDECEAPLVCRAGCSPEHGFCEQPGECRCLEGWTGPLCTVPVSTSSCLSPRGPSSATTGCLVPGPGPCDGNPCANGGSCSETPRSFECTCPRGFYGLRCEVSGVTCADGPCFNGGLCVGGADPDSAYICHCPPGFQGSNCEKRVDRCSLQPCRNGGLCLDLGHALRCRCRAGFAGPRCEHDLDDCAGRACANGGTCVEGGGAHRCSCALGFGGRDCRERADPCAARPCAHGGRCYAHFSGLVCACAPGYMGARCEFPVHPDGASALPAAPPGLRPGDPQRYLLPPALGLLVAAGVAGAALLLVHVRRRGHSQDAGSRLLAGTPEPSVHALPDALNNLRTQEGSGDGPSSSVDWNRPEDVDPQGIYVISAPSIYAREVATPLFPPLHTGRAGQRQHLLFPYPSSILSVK
Briefly: Affinity determination by Surface Plasmon Resonance (SPR), biotinylated human DLL3 immobilized on streptavidin sensor chip. The note with it: 25° C., Biacore, 1:1 binding model. How it is done: Affinity Determination by Surface Plasmon Resonance (SPR). SPR studies were performed on the compounds disclosed herein using the following protocol.
The binding affinity and binding kinetic parameters at 25° C. were determined using Biacore S200 or biacore 8K instrument. Biotinylated target ligand human DLL3 was immobilized on a streptavidin sensor chip. A reference surface was set up for nonspecific binding and refractive index changes. For analysis of the kinetics of interactions, varying concentrations of samples were injected at a flow rate of 100 μL/min using running buffer containing 20 mM phosphate buffer with 2.7 mM KCl, 137 mM NaCl, 0.05% Surfactant P20 and 2% DMSO. Sensorgram curves were fitted with 1:1 binding model, and affinity and kinetic parameters were obtained using Biacore Insight evaluation 4.0. software.
Usually Kd stands for the concentration at which binding is half-saturated. Read a high Kd as lower affinity. Consider `C[C@@H](O)[C@H](NC(=O)[C@H](Cc1c[nH]c2ccccc12)NC(=O)CCCCCNC(=O)CN1CCN(CC(=O)O)CCN(CC(=O)O)CCN(CC(=O)O)CC1)C(=O)N[C@@H](Cc1ccccc1C(F)(F)F)C(=O)N[C@H]1CSSC[C@@H](C(=O)N[C@@H](Cc2c[nH]c3ccccc23)C(=O)N2CCC[C@H]2C(N)=O)NC(=O)[C@H](CC(=O)O)NC(=O)[C@H](Cc2cnc[nH]2)NC(=O)[C@H](Cc2c[nH]c3ccccc23)NC(=O)[C@H](CC(N)=O)NC(=O)[C@H](CC(N)=O)NC1=O` [compound 65, DOTA-Ahx-W-T-(2CF3-F)-C(3)-N-N-W-H-D-C(3)-W-P-CONH2] ({DOTA-Ahx}-WT[Phe(2-CF3)]CNNWHDCWP-NH2; disulfide 4-10), for which the Kd lay in the range of 1 to 10 nM. For the compound `CC[C@H](C)[C@H](NC(=O)[C@@H](NC(=O)[C@H](Cc1c[nH]c2ccccc12)NC(=O)CCCCCNC(=O)CN1CCN(CC(=O)O)CCN(CC(=O)O)CCN(CC(=O)O)CC1)[C@@H](C)O)C(=O)N[C@H]1CSSC[C@@H](C(=O)N[C@@H](Cc2c[nH]c3ccccc23)C(=O)N2C[C@H](F)C[C@H]2C(N)=O)NC(=O)[C@H](CC(=O)O)NC(=O)[C@H](Cc2cnc[nH]2)NC(=O)[C@H](Cc2c[nH]c3ccccc23)NC(=O)[C@H](CC(N)=O)NC(=O)[C@H](CC(N)=O)NC1=O` [compound 66, DOTA-Ahx-W-T-I-C(3)-N-N-W-H-D-C(3)-W-(trans4Fluoro-P)-CONH2] ({DOTA-Ahx}-WTICNNWHDCW[Pro(trans-4-F)]-NH2; disulfide 4-10), the Kd was 1 to 10 nM. On to `CC[C@H](C)[C@H](NC(=O)[C@@H](NC(=O)[C@H](Cc1c[nH]c2ccccc12)NC(=O)CCCCCNC(=O)CN1CCN(CC(=O)O)CCN(CC(=O)O)CCN(CC(=O)O)CC1)[C@@H](C)O)C(=O)N[C@H]1CSSC[C@@H](C(=O)N[C@@H](Cc2c[nH]c3ccccc23)C(=O)N2C[C@@H](F)C[C@H]2C(N)=O)NC(=O)[C@H](CC(=O)O)NC(=O)[C@H](Cc2cnc[nH]2)NC(=O)[C@H](Cc2c[nH]c3ccccc23)NC(=O)[C@H](CC(N)=O)NC(=O)[C@H](CC(N)=O)NC1=O` [compound 67, DOTA-Ahx-W-T-I-C(3)-N-N-W-H-D-C(3)-W-(Cis4Fluoro-P)-CONH2] ({DOTA-Ahx}-WTICNNWHDCW[Pro(cis-4-F)]-NH2; disulfide 4-10), for which the Kd is 100 to 300 nM. For `CC[C@H](C)[C@H](NC(=O)[C@@H](NC(=O)[C@H](Cc1c[nH]c2ccccc12)NC(=O)CCCCCNC(=O)CN1CCN(CC(=O)O)CCN(CC(=O)O)CCN(CC(=O)O)CC1)[C@@H](C)O)C(=O)N[C@H]1CSSC[C@@H](C(=O)N[C@@H](Cc2c[nH]c3ccccc23)C(=O)N2C[C@H](O)C[C@H]2C(N)=O)NC(=O)[C@H](CC(=O)O)NC(=O)[C@H](Cc2cnc[nH]2)NC(=O)[C@H](Cc2c[nH]c3ccccc23)NC(=O)[C@H](CC(N)=O)NC(=O)[C@H](CC(N)=O)NC1=O` [compound 68, DOTA-Ahx-W-T-I-C(3)-N-N-W-H-D-C(3)-W-(trans4OH-P)-CONH2] ({DOTA-Ahx}-WTICNNWHDCW[Hyp]-NH2; disulfide 4-10) the value was 10 to 100 nM; for `CC[C@H](C)[C@H](NC(=O)[C@@H](NC(=O)[C@H](Cc1c[nH]c2ccccc12)NC(=O)CCCCCNC(=O)CN1CCN(CC(=O)O)CCN(CC(=O)O)CCN(CC(=O)O)CC1)[C@@H](C)O)C(=O)N[C@H]1CSSC[C@@H](C(=O)N[C@@H](Cc2c[nH]c3ccccc23)C(=O)N2C[C@@H](O)C[C@H]2C(N)=O)NC(=O)[C@H](CC(=O)O)NC(=O)[C@H](Cc2cnc[nH]2)NC(=O)[C@H](Cc2c[nH]c3ccccc23)NC(=O)[C@H](CC(N)=O)NC(=O)[C@H](CC(N)=O)NC1=O` [compound 69, DOTA-Ahx-W-T-I-C(3)-N-N-W-H-D-C(3)-W-(cis4OH-P)-CONH2] ({DOTA-Ahx}-WTICNNWHDCW[cisHyp]-NH2; disulfide 4-10), 100 to 300 nM; for `CC[C@H](C)[C@H](NC(=O)[C@@H](NC(=O)[C@H](Cc1c[nH]c2ccccc12)NC(=O)CCCCCNC(=O)CN1CCN(CC(=O)O)CCN(CC(=O)O)CCN(CC(=O)O)CC1)[C@@H](C)O)C(=O)N[C@H]1CSSC[C@@H](C(=O)N[C@@H](Cc2c[nH]c3ccccc23)C(=O)N2CCCC[C@H]2C(N)=O)NC(=O)[C@H](CC(=O)O)NC(=O)[C@H](Cc2cnc[nH]2)NC(=O)[C@H](Cc2c[nH]c3ccccc23)NC(=O)[C@H](CC(N)=O)NC(=O)[C@H](CC(N)=O)NC1=O` [compound 70, DOTA-Ahx-W-T-I-C(3)-N-N-W-H-D-C(3)-W-(Pip)-CONH2] ({DOTA-Ahx}-WTICNNWHDCW[Pip]-NH2; disulfide 4-10), 10 to 100 nM. Take `CC[C@H](C)[C@H](NC(=O)[C@@H](NC(=O)[C@H](Cc1c[nH]c2ccccc12)NC(=O)[C@@H](CCCCNC(=O)CN1CCN(CC(=O)O)CCN(CC(=O)O)CCN(CC(=O)O)CC1)NC(C)=O)[C@@H](C)O)C(=O)N[C@H]1CSSC[C@@H](C(=O)N[C@@H](Cc2c[nH]c3ccccc23)C(=O)N2CCC[C@H]2C(N)=O)NC(=O)[C@H](CC(=O)O)NC(=O)[C@H](Cc2c[nH]cn2)NC(=O)[C@H](Cc2c[nH]c3ccccc23)NC(=O)[C@H](CC(N)=O)NC(=O)[C@H](CC(N)=O)NC1=O` [compound 73, Ac-D-Lys(DOTA)-W-T-I-C(3)-N-N-W-H-D-C(3)-W-P-CONH2] (Ac-[dK](DOTA)WTICNNWHDCWP-NH2; disulfide 5-11): the dissociation constant Kd is 10 to 100 nM. For `CCCC[C@@H](NC(=O)[C@@H]1CCCN1C(=O)[C@H](Cc1c[nH]c2ccccc12)NC(=O)[C@@H]1CSSC[C@H](NC(=O)[C@@H](NC(=O)[C@@H](NC(=O)[C@H](Cc2c[nH]c3ccccc23)NC(=O)CCCCCNC(=O)CN2CCN(CC(=O)O)CCN(CC(=O)O)CCN(CC(=O)O)CC2)[C@@H](C)O)[C@@H](C)CC)C(=O)N[C@@H](CC(N)=O)C(=O)N[C@@H](CC(N)=O)C(=O)N[C@@H](Cc2c[nH]c3ccccc23)C(=O)N[C@@H](Cc2cnc[nH]2)C(=O)N[C@@H](CC(=O)O)C(=O)N1)C(N)=O` [compound 163, DOTA-Ahx-W-T-I-C(3)-N-N-W-H-D-C(3)-W-P-(D-Nle)-NH2] ({DOTA-Ahx}-WTICNNWHDCWP[dNle]-NH2; disulfide 4-10) the value was 1 to 10 nM; for `CC[C@H](C)[C@H](NC(=O)[C@@H](NC(=O)[C@H](Cc1c[nH]c2ccccc12)NC(=O)CC[C@@H](NC(=O)CC[C@@H](NC(=O)CC[C@@H](NC(=O)CN1CCN(CC(=O)O)CCN(CC(=O)O)CCN(CC(=O)O)CC1)C(=O)O)C(=O)O)C(=O)O)[C@@H](C)O)C(=O)N[C@H]1CSSC[C@@H](C(=O)N[C@@H](Cc2c[nH]c3ccccc23)C(=O)N2CCC[C@H]2C(=O)O)NC(=O)[C@H](CC(=O)O)NC(=O)[C@H](Cc2c[nH]cn2)NC(=O)[C@H](Cc2c[nH]c3ccccc23)NC(=O)[C@H](CC(N)=O)NC(=O)[C@H](CC(N)=O)NC1=O` [compound 221, DOTA-(D-gE)3-W-T-I-C(3)-N-N-W-H-D-C(3)-W-P-CONH2] ({DOTA-d(γGlu)-d(γGlu)-d(γGlu)}-WTICNNWHDCWP-OH; disulfide 4-10), 10 to 100 nM; for `CC[C@H](C)[C@H](NC(=O)[C@@H](NC(=O)[C@H](Cc1c[nH]c2ccccc12)NC(=O)CCCCCNC(=O)CN1CCN(CC(=O)O)CCN(CC(=O)O)CCN(CC(=O)O)CC1)[C@@H](C)O)C(=O)N[C@H]1CSSC[C@@H](C(=O)N[C@@H](Cc2c[nH]c3ccccc23)C(=O)N2C[C@H](N)C[C@H]2C(N)=O)NC(=O)[C@H](CC(=O)O)NC(=O)[C@H](Cc2cnc[nH]2)NC(=O)[C@H](Cc2c[nH]c3ccccc23)NC(=O)[C@H](CC(N)=O)NC(=O)[C@H](CC(N)=O)NC1=O` [compound 224, DOTA-Ahx-W-T-I-C(3)-N-N-W-H-D-C(3)-W-(trans4NH2-P)-CONH2] ({DOTA-Ahx}-WTICNNWHDCW[Pro(4R-NH2)]-NH2; disulfide 4-10), 10 to 100 nM.

As to `CC[C@H](C)[C@H](NC(=O)[C@@H](NC(=O)[C@H](Cc1c[nH]c2ccccc12)NC(=O)CCCCCNC(=O)CN1CCN(CC(=O)O)CCN(CC(=O)O)CCN(CC(=O)O)CC1)[C@@H](C)O)C(=O)N[C@H]1CSSC[C@@H](C(=O)N[C@@H](Cc2c[nH]c3ccccc23)C(=O)N2C[C@@H](N)C[C@H]2C(N)=O)NC(=O)[C@H](CC(=O)O)NC(=O)[C@H](Cc2cnc[nH]2)NC(=O)[C@H](Cc2c[nH]c3ccccc23)NC(=O)[C@H](CC(N)=O)NC(=O)[C@H](CC(N)=O)NC1=O` [compound 225, DOTA-Ahx-W-T-I-C(3)-N-N-W-H-D-C(3)-W-(cis4NH2-P)-CONH2] ({DOTA-Ahx}-WTICNNWHDCW[Pro(4S-NH2)]-NH2; disulfide 4-10), the Kd fell in the range of 10 to 100 nM.
